Columns and labels:
HCT116-FOP = experiment: Control reporter assay, HCT116 cells with FOP control vector (non-functional TCF elements); assay type: cell-based; details: Homo sapiens, HCT-116, luciferase expression, 36 hours incubation, dilution series 50 μM to 15 nM, read-out: HCT116-FOP IC50 [M] mol/L]
Procedure: In a parallel approach, HCT116 cells were cotransfected with the FOP control vector and pcDNA3. The FOP vector is identical to the TOP construct, but it contains instead of functional TCF elements a randomized, non-functional sequence. For this transfection a stable transfected cell line was generated as well.
(§1) In preparation of the assay, the two cell lines were plated 24 hours before at 10000 cells per well of a 384 micro titre plate (MTP) in 30 μL growth medium. Selective inhibitory activity for small molecules on the mutated Wnt pathway was determined after parallel incubation of both (TOP and FOP) HCT116 reporter cell lines with a compound dilution series from 50 μM to 15 nM in steps of 3.16-fold dilutions in CAFTY buffer (130 mM NaCI, 5 mM KCI, 20 mM HEPES, 1 mM MgCl2, 5 mM NaHCO3, pH 7.4) containing 2 mM Ca^2+ and 0.01% BSA. The compounds were thereby serially prediluted in 100% DMSO and thereafter in addition 50 fold into the CAFTY compound dilution buffer (described above). From this dilution 10 μL were added to the cells in 30 μL growth medium and incubated for 36 hours at 37° C. and 5% CO2. Thereafter luciferase assay buffer (1:1 mixture of luciferase substrate buffer (20 mM Tricine, 2.67 mM MgSO4, 0.1 mM EDTA, 4 mM DTT, 270 μM Coenzyme A, 470 μM Luciferin, 530 μM ATP, ph adjusted to pH 7.8 with a sufficient volume of 5M NaOH) and Triton buffer (30 mL Triton X-100, 115 mL glycerol, 308 mg Dithiothreitol, 4.45 g Na2HPO4. 2 H2O, 3.03 g TRIS HCl, ad 1I H2O, pH 7.8) was added as equal volume to the compound solution on the cells to determine luciferase expression as a measure of Wnt signaling activity in a luminometer.

[1] = test system: constitutive active colorectal cancer cell (CRC) Wnt pathway (HCT116-TOP); experiment: Cellular reporter assay, HCT116 Super TopFlash (TOP), constitutive active Wnt pathway; assay type: cell-based; details: Homo sapiens, HCT-116; HCT116 Super TopFlash reporter cells, luciferase expression, 36 hours incubation, dilution series 50 μM to 15 nM
Procedure: In order to discover and characterize small molecules which inhibit the constitutive active colorectal cancer cell (CRC) Wnt pathway, a cellular reporter assay was employed. The corresponding assay cell was generated by transfection of the colorectal cancer cell line HCT116 (ATCC, #CCL-247) with the Super TopFlash vector (Morin, Science 275, 1997, 1787-1790; Molenaar et al., Cell 86 (3), 1996, 391-399). The HCT116 cell line is cultivated at 37° C. and 5% CO2 in DMEM/F-12 (Life Technologies, #11320-074), supplemented with 2 mM glutamine, 20 mM HEPES, 1.4 mM pyruvate, 0.15% Na-bicarbonate and 10% foetal bovine serum (GIBCO, #10270), this cancer cell line is pathophysiological relevant since it carries a deletion of position S45 in the β-catenin gene, leading to constitutive active Wnt signaling. Stable transfectants were generated by cotransfection with pcDNA3 and selection of stable transfected cells with 1 mg/ml G418.
as §1

Structure (SMILES) | IC50 (HCT116-FOP) [M] | IC50 [1] [µM]
CC(=O)N1CCN(c2nnc(NC(=O)c3ccc(OC(F)(F)F)c(NC(=O)CN4CCN(C)CC4)c3)s2)CC1 [Example 18, N-[5-(4-acetylpiperazin-1-yl)-1,3,4-thiadiazol-2-yl]-3-{[(4-methylpiperazin-1-yl)-acetyl]amino}-4-(trifluoromethoxy)benzamide] | ≥ 5e-05 | 3.15
CC(C)(O)C1CCN(c2nnc(NC(=O)c3ccc(OC(F)(F)F)c(NC(=O)CN4CCOCC4)c3)s2)CC1 [Example 10] | ≥ 5e-05 | 0.84
CN1CCN(CC(=O)Nc2cc(C(=O)Nc3nnc(N4CCN(C(=O)N(C)C)CC4)s3)ccc2OC(F)(F)F)CC1 [Example 16, N,N-dimethyl-4-(5-{[3-{[(4-methylpiperazin-1-yl)acetyl]-amino}-4-(trifluoromethoxy)-benzoyl]amino}-1,3,4-thiadiazol-2-yl)piperazine-1-carboxamide] | ≥ 5e-05 | 2.1
CN1CCN(CC(=O)Nc2cc(C(=O)Nc3nnc(N4CCC(C(C)(C)O)CC4)s3)ccc2OC(F)(F)F)CC1 [Example 28, N-{5-[4-(2-hydroxypropan-2-yl)piperidin-1-yl]-1,3,4-thiadiazol-2-yI}-3-{[(4-methylpiperazin-1-yl)-acetyl]amino}-4-(trifluoromethoxy)benzamide] | 2.69e-05 | 20
CN1CCN(CC(=O)Nc2cc(C(=O)Nc3nnc(N4CCN(S(=O)(=O)N(C)C)CC4)s3)ccc2OC(F)(F)F)CC1 [Example 19, N-{5-[4-(dimethylsulfamoyl)-piperazin-1-yl]-1,3,4-thiadiazol-2-yl}-3-{[(4-methylpiperazin-1-yl)acetyl]-amino}-4-(trifluoromethoxy)-benzamide] | ≥ 5e-05 | 3.8
COC(=O)C1CCN(c2nnc(NC(=O)c3ccc(OC(F)(F)F)c(NC(=O)CN4CCOCC4)c3)s2)CC1 [Example 21, methyl 1-[5-({3-[(morpholin-4-ylacetyl)amino]-4-(trifluoromethoxy)benzoyl}-amino)-1,3,4-thiadiazol-2-yl]-piperidine-4-carboxylate] | ≥ 5e-05 | 4.1
CN1CCN(CC(=O)Nc2cc(C(=O)Nc3nnc(N4CCCCC4)s3)ccc2OC(F)(F)F)CC1 [Example 1, 3-{[(4-methylpiperazin-1-yl)pacetyl]amino}-N-[5-(piperidin-1-yl)-1,3,4-thiadiazol-2-yl]-4-(trifluoromethoxy)benzamide] | ≥ 5e-05 | 0.36
CN1CCN(CC(=O)Nc2cc(C(=O)Nc3nnc(N4CCCC4)s3)ccc2OC(F)(F)F)CC1 [Example 4, 3-{[(4-methylpiperazin-1-yl)pacetyl]amino}-N-[5-(pyrrolidin-1-yl)-1,3,4-thiadiazol-2-yl]-4-(trifluoromethoxy)benzamide] | ≥ 5e-05 | 0.492
COC1CCN(c2nnc(NC(=O)c3ccc(OC(F)(F)F)c(NC(=O)CN4CCN(C)CC4)c3)s2)CC1 [Example 11, N-{5-(4-methoxypiperidin-1-yl)-1,3,4-thiadiazol-2-yl]-3-{[(4-methylpiperazin-1-yl)acetyl]amino}-4-(trifluoromethoxy)benzamide] | ≥ 5e-05 | 0.22
O=C(CN1CCOCC1)Nc1cc(C(=O)Nc2nnc(N3CCC(O)CC3)s2)ccc1OC(F)(F)F [Example 29, N-[5-(4-hydroxypiperidin-1-yl)-1,3,4-thiadiazol-2-yl]-3-[(morpholin-4-ylacetyl)-amino]-4-(trifluoromethoxy)-benzamide] | ≥ 5e-05 | 26.8
CCOC(=O)N1CCN(c2nnc(NC(=O)c3ccc(OC(F)(F)F)c(NC(=O)CN4CCOCC4)c3)s2)CC1 [Example 13, ethyl 4-[5-({3-[(morpholin-4-yl-acetyl)amino]-4-(trifluoromethoxy)benzoyl}-amino)-1,3,4-thiadiazol-2-yl]piperazine-1-carboxylate] | ≥ 5e-05 | 1.4
CC1CCN(c2nnc(NC(=O)c3ccc(OC(F)(F)F)c(NC(=O)CN4CCOCC4)c3)s2)CC1 [Example 25, N-[5-(4-methylpiperidin-1-yl)-1,3,4-thiadiazol-2-yl]-3-[(morpholin-4-ylacetyl)-amino]-4-(trifluoromethoxy)-benzamide] | ≥ 5e-05 | 13
CC(=O)N1CCN(c2nnc(NC(=O)c3ccc(OC(F)(F)F)c(NC(=O)CN4CCOCC4)c3)s2)CC1 [Example 26, N-[5-(4-acetylpiperazin-1-yl)-1,3,4-thiadiazol-2-yl]-3-[(morpholin-4-ylacetyl)amino]-4-(trifluoromethoxy)benzamide] | ≥ 5e-05 | 15
CN(C)S(=O)(=O)N1CCN(c2nnc(NC(=O)c3ccc(OC(F)(F)F)c(NC(=O)CN4CCOCC4)c3)s2)CC1 [Example 15, N-{5-[4-(dimethylsulfamoyl)-piperazin-1-yl]-1,3,4-thiadiazol-2-yl}-3-[(morpholin-4-ylacetyl)-amino]-4-(trifluoromethoxy) benzamide] | ≥ 5e-05 | 1.99
COC1CCN(c2nnc(NC(=O)c3ccc(OC(F)(F)F)c(NC(=O)CN4CCOCC4)c3)s2)CC1 [Example 30, N-[5-(4-methoxypiperidin-1-yl)-1,3,4-thiadiazol-2-yl]-3-((morpholin-4-ylacetyl)-amino]-4-(trifluoromethoxy)-benzamide] | ≥ 5e-05 | 33.5
CC1(C)CCN(c2nnc(NC(=O)c3ccc(OC(F)(F)F)c(NC(=O)CN4CCOCC4)c3)s2)CC1 [Example 34, N-[5-(4,4-dimethylpiperidin-1-yl)-1,3,4-thiadiazol-2-yl]-3-[(morpholin-4-ylacetyl)-amino]-4-(trifluoromethoxy)-benzamide] | ≥ 5e-05 | 50
CN1CCN(CC(=O)Nc2cc(C(=O)Nc3nnc(N4CCN(C(=O)C5CC5)CC4)s3)ccc2OC(F)(F)F)CC1 [Example 9] | 1.8e-05 | 0.83
CCOC(=O)N1CCN(c2nnc(NC(=O)c3ccc(OC(F)(F)F)c(NC(=O)CN4CCN(C)CC4)c3)s2)CC1 [Example 17, ethyl 4-(5-{[3-{[(4-methylpiperazin-1-yl)acetyl]-amino}-4-(trifluoromethoxy)-benzoyl]amino}-1,3,4-thiadiazol-2-yl)piperazine-1-carboxylate] | 4.1e-05 | 2.85
COC(=O)C1CCN(c2nnc(NC(=O)c3ccc(OC(F)(F)F)c(NC(=O)CN4CCN(C)CC4)c3)s2)CC1 [Example 22, methyl 1-(5-{[3-{[(4-methyl-piperazin-1-yl)acetyl]amino}-4-(trifluoromethoxy)benzoyl]-amino}-1,3,4-thiadiazol-2-yl)-piperidine-4-carboxylate] | ≥ 5e-05 | 4.3
O=C(CN1CCOCC1)Nc1cc(C(=O)Nc2nnc(N3CCCC3)s2)ccc1OC(F)(F)F [Example 32, 3-[(morpholin-4-ylacetyl)-amino]-N-(5-(pyrrolidin-1-yl)-1,3,4-thiadiazol-2-yl)-4-(trifluoromethoxy)benzamide] | ≥ 5e-05 | 50
CN1CCN(CC(=O)Nc2cc(C(=O)Nc3nnc(N4CCC(C)(O)CC4)s3)ccc2OC(F)(F)F)CC1 [Example 8, N-[5-(4-hydroxy-4-methylpiperidin-1-yl)-1,3,4-thiadiazol-2-yl]-3-{[(4-methylpiperazin-1-yl)pacetyl]amino}-4-(trifluoromethoxy)benzamide] | ≥ 5e-05 | 0.655
CN1CCN(CC(=O)Nc2cc(C(=O)Nc3nnc(N4CCN(C(=O)OC(C)(C)C)CC4)s3)ccc2OC(F)(F)F)CC1 [Example 2] | ≥ 5e-05 | 0.0415
COC(=O)N1CCN(c2nnc(NC(=O)c3ccc(OC(F)(F)F)c(NC(=O)CN4CCN(C)CC4)c3)s2)CC1 [Example 6, methyl 4-(5-{[3-{[(4-methylpiperazin-1-yl)pacetyl]amino}-4-(trifluoromethoxy)benzoyl]amino}-1,3,4-thiadiazol-2-yl)ppiperazine-1-carboxylate] | 4.65e-05 | 0.0655
